Test results as given in patent publication US20070298994A1, “Use of 3-Mercapto-3-Methyl-Hexan-1-Ol for Use as Malodour Standard” (SYMRISE GMBH & CO. KG, priority 2004, published 2007).

Columns and labels:
[1] = Odour threshold value in air on a dynamic olfactometer; conditions: for odour threshold value in air: dynamic olfactometer, mean of 24 measured values (8 trained assessors, three passes), refers to the pure substance
Experimental: The odour threshold values in air were determined for the substance (E)-3-methyl-2-hexenoic acid also occurring in sweat and 3-mercapto-3-methyl-hexan-1-ol recently found in sweat.
The odour threshold value denotes the concentration of an olfactorily perceptible substance in air at which this can be distinguished from the odourless ambient air.
Determination is carried out on a dynamic olfactometer. A sample of 20 μl each of dilute solutions of the components is placed in a container with 7 l air. The samples in the olfactometer are diluted clearly below the odour threshold by defined addition of odourless air. In the olfactometer, the concentrations in the sample air are increased little by little until all the assessors have characterised a perception. A group of 8 trained assessors determines the concentration of the samples to be distinguished in odour from air on three passes each so that the mean value of 24 measured values leads to the respective concentrations. The (E)-3-methyl-2-hexenoic acid is measured at 1% and the 3-mercapto-3-methyl-hexan-1-ol at 0.1% in odourless dipropylene glycol. The different dilutions were taken into account for calculating the threshold values. The threshold values refer to the pure substances. The threshold value of the (E)-3-methyl-2-hexenoic acid was determined at 15.1 ng/l air. The threshold value for the 3-mercapto-3-methyl-hexan-1-ol was determined at 0.015 ng/l air. All assessors evaluated the threshold value of 3-mercapto-3-methyl-hexan-1-ol lower than (E)-3-methyl-2-hexenoic acid in all passes.

[2] = Raw material test against sweat odour (masking of malodour standard, assessor panel); conditions: for Increase In intensity / Odour reduction value: Table 1, 15 h at approx. 20° C., scale 1 to 9, malodour standard mixture = 6, mean of at least 8 assessors
[3] = Application test in the formulations (smelling strips, assessor panel); set-up: Malodour reduction value: scale not given here; conditions: smelling strip, 1 μl 3-mercapto-3-methyl-hexan-1-ol solution (0.001% in DPG), at least 12 experts
Experimental: Mixtures A-C and the fragrances of Table 4 were incorporated in the formulations of Examples 3-12 as perfume oil. […] The coding smelling strips were evaluated sensorily by a group of assessors of at least 12 experts.

[4] = Table 2 (raw materials without adequate malodour-reducing action), 1 μl fragrance + 5 μl 3-mercapto-3-methyl-hexan-1-ol (0.1% in DPG) in 7 l air, 15 h, scale 1 to 9, standard = 6
[5] = Table 4, tests with the mixtures (Example 2), according to the raw material test method
[6] = in EXAMPLE 3: ROLL-ON DEODORANT GEL
[7] = in EXAMPLE 6: GEL AIR FRESHENER
[8] = in EXAMPLE 7: AEROSOL DEODORANT
[9] = in EXAMPLE 9: HAIR SETTING LOTION
[10] = Table 3 (adequate malodour-reducing action but significant increase in intensity), 1 μl fragrance + 5 μl 3-mercapto-3-methyl-hexan-1-ol (0.1% in DPG) in 7 l air, 15 h, scale 1 to 9, standard = 6
[11] = 1 μl fragrance + 5 μl 3-mercapto-3-methyl-hexan-1-ol (0.1% in DPG) in 7 l air

## CCCC(C)(S)CCO (centres unmarked) [3-mercapto-3-methyl-hexan-1-ol]
[1]
  odour threshold value in air: 0.015 ng/l air
[1]; odour threshold values in air
  factor by which threshold value is lower than that of (E)-3-methyl-2-hexenoic acid: 1000

## CCC/C(C)=C/C(=O)O [(E)-3-methyl-2-hexenoic acid, reference compound]
[1]
  odour threshold value in air: 15.1 ng/l air

## CCOC(C)=O [ETHYL ACETATE]
[2]; [4]
  Increase in intensity: −0.9
  Malodour reduction value: 1.1
[2]; [5]
  Increase in intensity: −1.1
  Malodour reduction value: 1.1
[3]; [6]
  Increase in intensity: −0.1
  Malodour reduction value: 0.5
[3]; in EXAMPLE 4: W/O CREAM
  Increase in intensity: 0.0
  Malodour reduction value: 1.0
[3]; in EXAMPLE 5: O/W LOTION
  Increase in intensity: 0.5
  Malodour reduction value: 0.5
[3]; [7]
  Increase in intensity: 0.5
  Malodour reduction value: 0.8
[3]; [8]
  Increase in intensity: −0.5
  Malodour reduction value: 1.1
[3]; in EXAMPLE 8: FOOT CREAM
  Increase in intensity: 0.5
  Malodour reduction value: 0.8
[3]; [9]
  Increase in intensity: −0.5
  Malodour reduction value: 1.2
[3]; in EXAMPLE 10: CARE MASK
  Increase in intensity: 0.8
  Malodour reduction value: 1.2
[3]; in EXAMPLE 11: SKIN OIL
  Increase in intensity: −0.5
  Malodour reduction value: 0.3
[3]; in EXAMPLE 12: OINTMENT
  Increase in intensity: −0.6
  Malodour reduction value: 0.0

## CCCCCCCCC=O [NONANAL, reference compound]
[2]; [10]
  Increase in intensity: 2.1
  Malodour-reduction value: 3.0

## CCCCCCCC=O [OCTANAL, reference compound]
[2]; [4]
  Increase in intensity: 0.9
  Malodour reduction value: 2.4

## OCCCc1ccccc1 [PHENYL PROPYL ALCOHOL, reference compound]
[2]; [4]
  Increase in intensity: 1.0
  Malodour reduction value: 0.0

## CC(C)CCOC(=O)c1ccccc1O [SALICYLIC ACID 3-METHYLBUTYL ESTER]
[2]; [11]
  Increase In intensity: 1.0
  Odour reduction value: 3.3

## CCCCCCOC(=O)c1ccccc1O [SALICYLIC ACID HEXYL ESTER]
[2]; [11]
  Increase In intensity: 1.7
  Odour reduction value: 3.7

## CC(C)=CCOC(=O)c1ccccc1O [SALICYLIC ACID PRENYL ESTER]
[2]; [11]
  Increase In intensity: 0.2
  Odour reduction value: 3.6

## CCCCCC1COCCC1OC(C)=O (centres unmarked) [TETRAHYDRO-3-PENTYL-PYRAN-4-OL ACETATE]
[2]; [11]
  Increase In intensity: 1.5
  Odour reduction value: 4.5
[2]; [4]
  Increase in intensity: 1.0
  Malodour reduction value: 2.0

## CCC(C)(O)CCCC(C)C (centres unmarked) [TETRAHYDROLINALOOL, reference compound]
[2]; [10]
  Increase in intensity: 2.3
  Malodour-reduction value: 3.0

## CCC(C)CCCC(C)(C)O (centres unmarked) [TETRAHYDROMYRCENOL, reference compound]
[2]; [10]
  Increase in intensity: 2.2
  Malodour-reduction value: 4.0

## C/C=C(\C)C(=O)OC/C=C(\C)CCC=C(C)C [TIGLIC ACID GERANYL ESTER]
[2]; [11]
  Increase In intensity: 0.8
  Odour reduction value: 4.5

## CC(C)[C@H]1CC[C@H](O)CC1 [TRANS-4-ISOPROPYL CYCLOHEXANOL]
[2]; [11]
  Increase In intensity: 1.0
  Odour reduction value: 4.1

## CCCCCCCCCCCC#N [UNDECYL CYANIDE]
[2]; [11]
  Increase In intensity: 1.6
  Odour reduction value: 3.3

## COc1cc(C=O)ccc1O [VANILLIN, reference compound]
[2]; [4]
  Increase in intensity: 1.0
  Malodour reduction value: 0.0

## CC1CC(C)(c2ccccc2)OC(C)O1 (centres unmarked) [reference compound]
[2]
  Increase in intensity: −0.7
  Malodour reduction value: 1.1

## CCCCCC(C=O)=Cc1ccccc1 [reference compound]
[2]; [4]
  Increase in intensity: 1.0
  Malodour reduction value: 0.0
